Data published in patent US10202354B2, “Therapeutic compounds and uses thereof” (GENENTECH, INC., priority 2015, dated 2019).
pIC50: −log10 of the molar value.

molecular target: Full length KDM2B (Homo sapiens (Human), UniProt Q8NHM5); test: KDM2B TR-FRET Assay for Determining Inhibitor IC50; type: biochemical; conditions: TR-FRET (HTRF), biotin-H3K36me2 peptide substrate
From the text: KDM2B TR-FRET Assay for Determining Inhibitor IC50
The KDM2B TR-FRET Assay described above represents an additional embodiment of the invention.

Chain of Full length KDM2B (Q8NHM5 whole entry): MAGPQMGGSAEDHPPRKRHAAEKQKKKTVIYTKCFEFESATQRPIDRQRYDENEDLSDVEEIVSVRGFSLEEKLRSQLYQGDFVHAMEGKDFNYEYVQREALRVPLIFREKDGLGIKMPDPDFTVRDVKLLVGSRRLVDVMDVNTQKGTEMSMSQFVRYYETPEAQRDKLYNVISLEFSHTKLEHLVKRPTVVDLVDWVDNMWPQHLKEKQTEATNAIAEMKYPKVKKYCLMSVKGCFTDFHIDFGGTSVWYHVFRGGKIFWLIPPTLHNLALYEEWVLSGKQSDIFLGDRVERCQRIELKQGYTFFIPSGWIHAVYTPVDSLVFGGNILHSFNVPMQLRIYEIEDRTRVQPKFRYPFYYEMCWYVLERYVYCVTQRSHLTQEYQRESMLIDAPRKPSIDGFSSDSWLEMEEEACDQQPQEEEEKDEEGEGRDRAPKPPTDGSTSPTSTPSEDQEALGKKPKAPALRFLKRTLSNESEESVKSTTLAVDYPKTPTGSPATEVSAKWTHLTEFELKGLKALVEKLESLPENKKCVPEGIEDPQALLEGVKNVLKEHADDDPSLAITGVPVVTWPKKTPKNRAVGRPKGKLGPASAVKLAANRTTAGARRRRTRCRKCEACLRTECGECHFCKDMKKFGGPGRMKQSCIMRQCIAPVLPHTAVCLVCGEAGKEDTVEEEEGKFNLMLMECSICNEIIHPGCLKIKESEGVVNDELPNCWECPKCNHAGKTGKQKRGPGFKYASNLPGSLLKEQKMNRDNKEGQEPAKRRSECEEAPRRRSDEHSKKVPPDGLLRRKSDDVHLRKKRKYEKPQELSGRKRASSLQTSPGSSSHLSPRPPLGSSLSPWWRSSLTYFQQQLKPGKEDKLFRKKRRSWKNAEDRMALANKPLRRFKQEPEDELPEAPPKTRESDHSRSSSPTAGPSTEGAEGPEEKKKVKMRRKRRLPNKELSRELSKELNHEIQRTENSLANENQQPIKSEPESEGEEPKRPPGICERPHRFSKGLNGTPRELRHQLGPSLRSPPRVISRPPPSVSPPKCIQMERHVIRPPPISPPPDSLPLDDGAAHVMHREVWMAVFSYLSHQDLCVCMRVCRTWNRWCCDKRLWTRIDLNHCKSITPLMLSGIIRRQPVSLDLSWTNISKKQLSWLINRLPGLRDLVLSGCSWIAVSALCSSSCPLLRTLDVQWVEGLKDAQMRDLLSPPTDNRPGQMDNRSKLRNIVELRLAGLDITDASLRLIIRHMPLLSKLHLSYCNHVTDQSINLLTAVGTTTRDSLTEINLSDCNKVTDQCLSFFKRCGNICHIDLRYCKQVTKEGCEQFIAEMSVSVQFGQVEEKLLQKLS

| pIC50 | Structure (SMILES) |
| --- | --- |
| 9.41 | CC(C)c1ccc(S(=O)(=O)N2CCN=C2N2CCN(C3CC(F)C3)CC2)cc1 (centres unmarked) [Example 40, 1-(3-fluorocyclobutyl)-4-[1-(4-isopropylphenyl)sulfonyl-4,5-dihydroimidazol-2-yl]piperazine] |
| 10.41 | CC(C)c1ccc(S(=O)(=O)N2C[C@@H](C3CC3)N=C2N2CCN(C3CCC3)CC2)cc1 [Example 41, (R)-1-cyclobutyl-4-(4-cyclopropyl-1-((4-isopropylphenyl)sulfonyl)-4,5-dihydro-1H-imidazol-2-yl)piperazine] |
| 10.33 | CC(C)c1ccc(S(=O)(=O)N2C[C@H](C3CC3)N=C2N2CCN(C3CCC3)CC2)cc1 [Example 42, (S)-1-cyclobutyl-4-(4-cyclopropyl-1-((4-isopropylphenyl)sulfonyl)-4,5-dihydro-1H-imidazol-2-yl)piperazine] |
| 8.06 | CCN1CCN(C2=N[C@H](C)CN2S(=O)(=O)c2ccc(C(C)C)cc2)CC1 [Example 43, (R)-1-ethyl-4-[1-(4-isopropylphenyl)sulfonyl-4-methyl-4,5-dihydroimidazol-2-yl]piperazine] |
| 9.28 | CCN1CCN(C2=N[C@@H](C)CN2S(=O)(=O)c2ccc(C(C)C)cc2)CC1 [Example 44, (S)-1-ethyl-4-[1-(4-isopropylphenyl)sulfonyl-4-methyl-4,5-dihydroimidazol-2-yl]piperazine] |
| 10.31 | CC(C)c1ccc(S(=O)(=O)N2CC3(CCCC3)N=C2N2CCN(C3CCC3)CC2)cc1 [Example 45, 2-(4-cyclobutylpiperazin-1-yl)-3-(4-isopropylphenyl)sulfonyl-1,3-diazaspiro[4.4]non-1-ene] |
| 10.27 | CC(C)c1ccc(S(=O)(=O)N2C[C@@H](C)N=C2N2CCN(C3CCC3)CC2)cc1 [Example 46, (R)-1-cyclobutyl-4-[1-(4-isopropylphenyl)sulfonyl-4-methyl-4,5-dihydroimidazol-2-yl]piperazine] |
| 9.94 | CC(C)c1ccc(S(=O)(=O)N2C[C@H](C)N=C2N2CCN(C3CCC3)CC2)cc1 [Example 47, (S)-1-cyclobutyl-4-[1-(4-isopropylphenyl)sulfonyl-4-methyl-4,5-dihydroimidazol-2-yl]piperazine] |
| 8.37 | CC(C)c1ccc(S(=O)(=O)N2CCN=C2N2CCC(N3CCOCC3)CC2)cc1 [Example 49, 4-[1-[1-(4-isopropylphenyl)sulfonyl-4,5-dihydroimidazol-2-yl]-4-piperidyl]morpholine] |
| 9.44 | Cn1c(=O)oc2cc(S(=O)(=O)N3CCN=C3N3CCN(C4CCC4)CC3)ccc21 [Example 55, 6-[[2-(4-cyclobutylpiperazin-1-yl)-4,5-dihydroimidazol-1-yl]sulfonyl]-3-methyl-1,3-benzoxazol-2-one] |
| 9.84 | Cc1cccc(S(=O)(=O)N2CCN=C2N2CCN(C3CCC3)CC2)c1 [Example 59, 1-cyclobutyl-4-[1-(m-tolylsulfonyl)-4,5-dihydroimidazol-2-yl]piperazine] |
| 9.56 | O=S(=O)(c1cccc(C(F)(F)F)c1)N1CCN=C1N1CCN(C2CCC2)CC1 [Example 60, 1-cyclobutyl-4-[1-[3-(trifluoromethyl)phenyl]sulfonyl-4,5-dihydroimidazol-2-yl]-piperazine] |
| 9.51 | O=S(=O)(c1cc(Cl)cc(Cl)c1)N1CCN=C1N1CCN(C2CCC2)CC1 [Example 62, 1-cyclobutyl-4-[1-(3,5-dichlorophenyl)sulfonyl-4,5-dihydroimidazol-2-yl]piperazine] |
| 9.30 | O=S(=O)(c1cccc2nonc12)N1CCN=C1N1CCN(C2CCC2)CC1 [Example 64, 4-[[2-(4-cyclobutylpiperazin-1-yl)-4,5-dihydroimidazol-1-yl]sulfonyl]-2,1,3-benzoxadiazole] |
| 9.87 | O=S(=O)(c1ccc(Cl)c(Cl)c1)N1CCN=C1N1CCN(C2CCC2)CC1 [Example 67, 1-cyclobutyl-4-[1-(3,4-dichlorophenyl)sulfonyl-4,5-dihydromidazol-2-yl]piperazine] |
| 7.94 | CCN1CCN(C2=NCCN2S(=O)(=O)c2ccc(Cl)c(Cl)c2)CC1 [Example 69, 1-[1-(3,4-dichlorophenyl)sulfonyl-4,5-dihydroimidazol-2-yl]-4-ethyl-piperazine] |
| 10.03 | CC(=O)Nc1ccc(S(=O)(=O)N2CCN=C2N2CCN(C3CCC3)CC2)cc1 [Example 70, N-[4-[[2-(4-cyclobutylpiperazin-1-yl)-4,5-dihydroimidazol-1-yl]sulfonyl]phenyl]acetamide] |
| 10.39 | O=S(=O)(c1ccc2cc(Cl)ccc2c1)N1CCN=C1N1CCN(C2CCC2)CC1 [Example 74, 1-[1-[(6-chloro-2-naphthyl)sulfonyl]-4,5-dihydroimidazol-2-yl]-4-cyclobutyl-piperazine] |
| 9.90 | CC(=O)Nc1ccc(S(=O)(=O)N2CCN=C2N2CCN(C3CCC3)CC2)cc1Cl [Example 81, N-[2-chloro-4-[[2-(4-cyclobutylpiperazin-1-yl)-4,5-dihydroimidazol-1-yl]sulfonyl]phenyl]acetamide] |
| 8.15 | O=C(c1ccccc1)N1CCN=C1N1CCN(C2CCC2)CC1 [Example 82, [2-(4-cyclobutylpiperazin-1-yl)-4,5-dihydroimidazol-1-yl]-phenyl-methanone] |

| pIC50 | Structure (SMILES) |
| --- | --- |
| 8.51 | Cc1ccccc1C(=O)N1CCN=C1N1CCN(C2CCC2)CC1 [Example 83, [2-(4-cyclobutylpiperazin-1-yl)-4,5-dihydroimidazol-1-yl]-(o-tolyl)methanone] |
| 8.57 | Cc1ccc(C(=O)N2CCN=C2N2CCN(C3CCC3)CC2)cc1 [Example 84, [2-(4-cyclobutylpiperazin-1-yl)-4,5-dihydroimidazol-1-yl]-(p-tolyl)methanone] |
| 8.51 | Cc1cccc(C(=O)N2CCN=C2N2CCN(C3CCC3)CC2)c1 [Example 85, [2-(4-cyclobutylpiperazin-1-yl)-4,5-dihydroimidazol-1-yl]-(m-tolyl)methanone] |
| 8.69 | O=C(c1cccc(Cl)c1)N1CCN=C1N1CCN(C2CCC2)CC1 [Example 86, (3-chlorophenyl)-[2-(4-cyclobutylpiperazin-1-yl)-4,5-dihydroimidazol-1-yl]methanone] |
| 8.65 | O=C(c1ccccc1Cl)N1CCN=C1N1CCN(C2CCC2)CC1 [Example 87, (2-chlorophenyl)-[2-(4-cyclobutylpiperazin-1-yl)-4,5-dihydroimidazol-1-yl]methanone] |
| 8.66 | O=C(c1ccc(Cl)cc1)N1CCN=C1N1CCN(C2CCC2)CC1 [Example 88, (4-chlorophenyl)-[2-(4-cyclobutylpiperazin-1-yl)-4,5-dihydroimidazol-1-yl]methanone] |
| 8.36 | COc1ccc(C(=O)N2CCN=C2N2CCN(C3CCC3)CC2)cc1 [Example 89, [2-(4-cyclobutylpiperazin-1-yl)-4,5-dihydroimidazol-1-yl]-(4-methoxyphenyl)methanone] |
| 8.64 | COc1cccc(C(=O)N2CCN=C2N2CCN(C3CCC3)CC2)c1 [Example 90, [2-(4-cyclobutylpiperazin-1-yl)-4,5-dihydroimidazol-1-yl]-(3-methoxyphenyl)methanone] |
| 7.94 | COc1ccccc1C(=O)N1CCN=C1N1CCN(C2CCC2)CC1 [Example 91, [2-(4-cyclobutylpiperazin-1-yl)-4,5-dihydroimidazol-1-yl]-(2-methoxyphenyl)methanone] |
| 8.85 | CC1CCC(N2CCN(C3=NCCN3S(=O)(=O)c3ccc(C(C)C)cc3)CC2)C1 (centres unmarked) [Example 94, 1-[1-(4-isopropylphenyl)sulfonyl-4,5-dihydroimidazol-2-yl]-4-(3-methylcyclopentyl)piperazine] |
| 8.99 | CCN1CCN(C2=NCCN2S(=O)(=O)c2ccc(-c3ccc(F)cc3)cc2)CC1 [Example 98, 1-ethyl-4-[1-[4-(4-fluorophenyl)phenyl]sulfonyl-4,5-dihydroimidazol-2-yl]piperazine] |
| 8.21 | CCN1CCN(C2=NCCN2S(=O)(=O)c2cccc(OC(F)(F)F)c2)CC1 [Example 99, 1-ethyl-4-[1-[3-(trifluoromethoxy)phenyl]sulfonyl-4,5-dihydroimidazol-2-yl]piperazine] |
| 8.55 | CCN1CCN(C2=NCCN2S(=O)(=O)c2ccc(Cl)cc2Cl)CC1 [Example 100, 1-[1-(2,4-dichlorophenyl)sulfonyl-4,5-dihydroimidazol-2-yl]-4-ethyl-piperazine] |
| 8.78 | CCN1CCN(C2=NCCN2S(=O)(=O)c2ccc(OC(F)(F)F)cc2)CC1 [Example 102, 1-ethyl-4-[1-[4-(trifluoromethoxy)phenyl]sulfonyl-4,5-dihydroimidazol-2-yl]piperazine] |
| 8.16 | CCN1CCN(C2=NCCN2S(=O)(=O)c2cccc(C(F)(F)F)c2)CC1 [Example 103, 1-ethyl-4-[1-[3-(trifluoromethyl)phenyl]sulfonyl-4,5-dihydroimidazol-2-yl]piperazine] |
| 8.11 | CCN1CCN(C2=NCCN2S(=O)(=O)c2cccc(OC(F)F)c2)CC1 [Example 104, 1-[1-[3-(difluoromethoxy)phenyl]sulfonyl-4,5-dihydroimidazol-2-yl]-4-ethyl-piperazine] |
| 8.48 | CCN1CCN(C2=NCCN2S(=O)(=O)c2ccc(OC(F)F)cc2)CC1 [Example 105, 1-[1-[4-(difluoromethoxy)phenyl]sulfonyl-4,5-dihydroimidazol-2-yl]-4-ethyl-piperazine] |
| 8.45 | CCN1CCN(C2=NCCN2S(=O)(=O)c2cc(Cl)ccc2Cl)CC1 [Example 106, 1-[1-(2,5-dichlorophenyl)sulfonyl-4,5-dihydroimidazol-2-yl]-4-ethyl-piperazine] |
| 8.41 | CCN1CCN(C2=NCCN2S(=O)(=O)c2ccc(C(F)(F)F)cc2)CC1 [Example 107, 1-ethyl-4-[1-[4-(trifluoromethyl)phenyl]sulfonyl-4,5-dihydroimidazol-2-yl]piperazine] |
| 7.89 | CCN1CCN(C2=NCCN2S(=O)(=O)c2c(F)cccc2F)CC1 [Example 108, 1-[1-(2,6-difluorophenyl)sulfonyl-4,5-dihydroimidazol-2-yl]-4-ethyl-piperazine] |

| Structure (SMILES) | pIC50 |
| --- | --- |
| CC(C)c1ccc(S(=O)(=O)N2CCN=C2N2C3CCC2CN(C2CCC2)C3)cc1 [Example 48, 3-cyclobutyl-8-[1-(4-isopropylphenyl)sulfonyl-4,5-dihydroimidazol-2-yl]-3,8-diazabicyclo[3.2.1]octane] | 8.93 |
